Results taken from patent US20240148821A1, “PHARMACEUTICAL USE OF CYCLIC PEPTIDE COMPOUND” (CHUGAI SEIYAKU KABUSHIKI KAISHA, priority 2021, published 2024).
Numbered stars: 1 amine (or outer) side, 2 acyl side, 3 side chain; on linkers, the order of the positions; unused ones are H or OH. Bridge positions count the residues as written; N and C are the ends. Square brackets hold non-standard residues; d marks the D form. Peptide text beside a SMILES is read from it. * marks the point of attachment. hPhe(3-Cl-4-CF3) = N[C@@H](CCc1ccc(C(F)(F)F)c(Cl)c1)C(=O)O; hPhe(3-F,4-CF3) = N[C@@H](CCc1ccc(C(F)(F)F)c(F)c1)C(=O)O; NMePhe(4-Cl) = CN[C@@H](Cc1ccc(Cl)cc1)C(=O)O; NMePhe(4-Me) = CN[C@@H](Cc1ccc(C)cc1)C(=O)O; NMedβ3hAla = C[C@H](CC(=O)[*:2])N(C)[*:1]; NMeNva(5,5-F2) = CN[C@@H](CCC(F)F)C(=O)O; NMeGly(cBu) = CN[C@H](C(=O)O)C1CCC1; NMeCha = CN[C@@H](CC1CCCCC1)C(=O)O; NMeChg = CN[C@H](C(=O)O)C1CCCCC1; NMeI = CC[C@H](C)[C@H](NC)C(=O)O; Cha = N[C@@H](CC1CCCCC1)C(=O)O; NMeD = CN[C@@H](CC(=O)O)C(=O)O; NMeL = CN[C@@H](CC(C)C)C(=O)O; NMeV = CN[C@H](C(=O)O)C(C)C; d(β3hA) = C[C@@H](N)CC(=O)O; NPhGly = O=C(O)CNc1ccccc1; NMeA = CN[C@@H](C)C(=O)O; NMeAib = CNC(C)(C)C(=O)O; Nle = CCCC[C@H](N)C(=O)O; Piperidide = C1CCN(*)CC1; Ac5c = NC1(C(=O)O)CCCC1; Aze = O=C(O)[C@@H]1CCN1; NBuGly = CCCCNCC(=O)O; Sar = CNCC(=O)O

Tests used:
[1] = biological target: protein-protein interaction between Kras and SOS1 (biotin-tagged human Kras loaded with GDP, His-tagged human SOS1) (Homo sapiens (Human), UniProt P01116, G12D); experiment: Protein-protein interaction inhibition between Kras and SOS1 (KrasG12D-SOS PPI) using AlphaScreen; format: biochemical; settings: AlphaScreen; biotin-tagged human Kras loaded with GDP, His-tagged human SOS1; read-out: KRAS G12D-SOS PPI IC50;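 further: kras produced in E. coli, Ni-coupled donor beads and streptavidin acceptor beads, excitation 680 nm with emission detected at 520–620 nm via singlet oxygen transfer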
[2] = test system: Human pancreatic cancer cell line AsPC-1 (G12D mutation Kras); experiment: AsPC-1 cell growth inhibition (AsPC-1 CGI); format: cell-based; settings: read-out: AsPC-1 cell growth inhibition, 50% growth inhibitory concentration (IC50 value); 96 hours, CellTiter-Glo, values classified in ranges
Description: Test compounds were serially dilated with dimethyl sulfoxide, and 200 nL was then dispensed to a U-bottom 96-well plate using Labcyte Echo. […] The cell suspension was dispensed to a. plate containing a test compound at 100 μL per well and incubated at 37° C. in a 5% carbon dioxide gas incubator. 96 hours later, 80 μL of CellTiter-Glo (Promega) was added to each well and fluorescence was measured.

Compound | IC50 [1] [nM] | IC50 [2] [nM]
CC[C@H](C)[C@@H]1NC(=O)[C@H](CC(C)C)N(C)C(=O)C[C@@H](C(=O)N2CCCCC2)N(C)C(=O)[C@H](C(C)C)N(C)C(=O)C2(CCCC2)NC(=O)[C@@H]2CCCN2C(=O)[C@H](CCc2ccc(C(F)(F)F)c(Cl)c2)NC(=O)CN(C)C(=O)[C@H](CCC(F)F)N(C)C(=O)[C@@H]2CCN2C(=O)[C@H](C)N(C)C1=O [Compound 1769] ([NMeL]I[NMeA][Aze][NMeNva(5,5-F2)][Sar][hPhe(3-Cl-4-CF3)]P[Ac5c][NMeV][NMeD]-Piperidide; lactam N-11) | 11 | > 500
CCCCN1CC(=O)NC2(CCCC2)C(=O)N(C)[C@@H](C2CCCCC2)C(=O)N(C)[C@H](C(=O)N2CCCCC2)CC(=O)N(C)[C@@H](CC(C)C)C(=O)N[C@@H]([C@@H](C)CC)C(=O)N(C)CC(=O)N(C)CC(=O)N(C)[C@@H](CC2CCCCC2)C(=O)N(C)CC(=O)N[C@@H](CCc2ccc(C(F)(F)F)c(Cl)c2)C1=O [Compound 848] ([NMeL]I[Sar][Sar][NMeCha][Sar][hPhe(3-Cl-4-CF3)][NBuGly][Ac5c][NMeChg][NMeD]-Piperidide; lactam N-11) | 16 | > 500
CC[C@H](C)[C@@H]1NC(=O)[C@H](C)N(C)C(=O)C[C@@H](C(=O)N2CCCCC2)N(C)C(=O)[C@H](C2CCC2)N(C)C(=O)C2(CCCC2)NC(=O)CN(c2ccccc2)C(=O)[C@H](CCc2ccc(C(F)(F)F)c(Cl)c2)NC(=O)CN(C)C(=O)[C@H](CC2CCCCC2)N(C)C(=O)CN(C)C(=O)CN(C)C1=O [Compound 2151] ([NMeA]I[Sar][Sar][NMeCha][Sar][hPhe(3-Cl-4-CF3)][NPhGly][Ac5c][NMeGly(cBu)][NMeD]-Piperidide; lactam N-11) | 2.5 | > 500
CCCC[C@@H]1NC(=O)[C@H](CCc2ccc(C(F)(F)F)c(F)c2)NC(=O)CN(C)C(=O)[C@H](Cc2ccc(Cl)cc2)N(C)C(=O)CN(C)C(=O)CN(C)C(=O)[C@H]([C@@H](C)CC)NC(=O)[C@H](CC(C)C)N(C)C(=O)C[C@@H](C)N(C)C(=O)[C@H](CC(C)C)NC(=O)C(C)(C)N(C)C1=O [Compound 165] (cyclo(I[Sar][Sar][NMePhe(4-Cl)][Sar][hPhe(3-F,4-CF3)][Nle][NMeAib]L[NMedβ3hAla][NMeL])) | 41 | > 500
CC(C)C[C@H]1C(=O)N[C@@H](CC2CCCCC2)C(=O)N(C)CC(=O)N(C)CC(=O)N(C)[C@@H](CC2CCCCC2)C(=O)N(C)CC(=O)N[C@@H](CCc2ccc(C(F)(F)F)c(Cl)c2)C(=O)N2CCC[C@H]2C(=O)NC2(CCCC2)C(=O)N(C)[C@@H](C2CCCCC2)C(=O)N(C)[C@H](C(=O)N2CCCCC2)CC(=O)N1C [Compound 1] ([NMeL][Cha][Sar][Sar][NMeCha][Sar][hPhe(3-Cl-4-CF3)]P[Ac5c][NMeChg][NMeD]-Piperidide; lactam N-11) | 5.9 | > 500
CC[C@H](C)[C@@H]1NC(=O)[C@H](CC(C)C)N(C)C(=O)C[C@@H](C(=O)N2CCCCC2)N(C)C(=O)[C@H](C2CCCCC2)N(C)C(=O)C2(CCCC2)NC(=O)[C@H](C)NC(=O)[C@H](CCc2ccc(C(F)(F)F)c(Cl)c2)NC(=O)CN(C)C(=O)[C@H](CC2CCCCC2)N(C)C(=O)CN(C)C(=O)CN(C)C1=O [Compound 205] ([NMeL]I[Sar][Sar][NMeCha][Sar][hPhe(3-Cl-4-CF3)]A[Ac5c][NMeChg][NMeD]-Piperidide; lactam N-11) | 0.49 | > 500
CC[C@H](C)[C@@H]1NC(=O)[C@H](CC(C)C)N(C)C(=O)C[C@@H](C)NC(=O)[C@H]([C@@H](C)CC)N(C)C(=O)C2(CCCC2)NC(=O)[C@@H]2CCCN2C(=O)[C@H](CCc2ccc(C(F)(F)F)c(Cl)c2)NC(=O)CN(C)C(=O)[C@H](Cc2ccc(C)cc2)N(C)C(=O)[C@@H]2CCN2C(=O)[C@H](C)N(C)C1=O [Compound 1661] (cyclo([Ac5c][NMeI][d(β3hA)][NMeL]I[NMeA][Aze][NMePhe(4-Me)][Sar][hPhe(3-Cl-4-CF3)]P)) | 2.7 | ≤ 20
CC[C@H](C)[C@@H]1NC(=O)[C@H](CC(C)C)N(C)C(=O)C[C@@H](C(=O)N(C)C)N(C)C(=O)[C@H]([C@@H](C)CC)N(C)C(=O)C2(CCCC2)NC(=O)[C@@H]2CCCN2C(=O)[C@H](CCc2ccc(C(F)(F)F)c(F)c2)NC(=O)CN(C)C(=O)[C@H](CC2CCCCC2)N(C)C(=O)[C@@H]2CCN2C(=O)[C@H](C)N(C)C1=O [Compound 999] ([NMeL]I[NMeA][Aze][NMeCha][Sar][hPhe(3-F,4-CF3)]P[Ac5c][NMeI][NMeD]-NMe2; lactam N-11) | 1.7 | ≤ 20
